Results from US5663194A, “Chroman-2-ylmethylamino derivatives” (priority 1996, dated 1997).
pIC50: −log10 of the molar value.

Experiments:
[1] = target: T1, dopamine autoreceptor (D2) (Rattus norvegicus, UniProt P61169); test: Affinity for the dopamine autoreceptor: 3H-quinpirole (Quin.) binding in homogenized rat striatal brain tissue
T1 construct: homogenized rat striatal brain tissue is incubated with; from tissue; host or cells: rat striatal brain tissue, homogenized

[2] = target: T2, dopamine D-2 receptor (Rattus norvegicus, UniProt P61169); test: Affinity for the dopamine D-2 receptor: 3H-spiroperidol (Spiper.) binding in homogenized limbic brain tissue; conditions: read-out: IC50 D2 Spiper.
T2 construct: homogenized limbic brain tissue is incubated with; from tissue; host or cells: limbic brain tissue, homogenized

[3] = target: T3, 5-HT1a (Homo sapiens, UniProt P08908); test: 5-HT1a; format: binding
T3 sequence (P08908 1-422): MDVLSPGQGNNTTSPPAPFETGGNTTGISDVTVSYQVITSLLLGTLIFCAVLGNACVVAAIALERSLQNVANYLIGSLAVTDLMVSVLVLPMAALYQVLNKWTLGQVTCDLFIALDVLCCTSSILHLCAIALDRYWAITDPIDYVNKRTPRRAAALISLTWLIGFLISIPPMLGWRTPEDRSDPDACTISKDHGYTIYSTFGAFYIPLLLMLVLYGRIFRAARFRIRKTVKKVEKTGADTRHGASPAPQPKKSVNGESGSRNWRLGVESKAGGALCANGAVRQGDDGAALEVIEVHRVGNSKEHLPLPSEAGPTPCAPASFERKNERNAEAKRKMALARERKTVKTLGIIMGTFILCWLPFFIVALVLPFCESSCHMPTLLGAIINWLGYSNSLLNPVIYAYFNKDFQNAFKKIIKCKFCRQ

[4] = system: α1; test: α1; format: binding

T2 sequence (P61169 whole entry): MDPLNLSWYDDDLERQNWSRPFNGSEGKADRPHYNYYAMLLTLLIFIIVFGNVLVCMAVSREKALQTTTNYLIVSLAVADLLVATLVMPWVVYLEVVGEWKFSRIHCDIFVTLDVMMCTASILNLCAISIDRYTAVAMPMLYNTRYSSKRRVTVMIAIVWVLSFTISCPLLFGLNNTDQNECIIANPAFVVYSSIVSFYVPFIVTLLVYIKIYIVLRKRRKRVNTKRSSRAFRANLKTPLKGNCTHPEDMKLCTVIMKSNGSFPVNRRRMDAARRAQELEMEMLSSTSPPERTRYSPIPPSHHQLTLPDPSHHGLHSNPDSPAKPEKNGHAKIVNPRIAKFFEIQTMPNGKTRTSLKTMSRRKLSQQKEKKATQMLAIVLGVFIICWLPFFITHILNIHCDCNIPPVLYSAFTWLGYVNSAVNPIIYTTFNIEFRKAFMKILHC
T1 sequence (P61169 whole entry): as above

| pIC50 [1] | pIC50 [2] | pIC50 [3] | Compound | pIC50 [4] |
| --- | --- | --- | --- | --- |
| 6.74 | 5.31 | 6.66 | CCCNCC1CCc2ccc(NS(C)(=O)=O)cc2O1 (centres unmarked) [Example 1c, N-(2-Propylaminomethyl-chroman-7-yl)-methanesulfonamide] | 5.85 |
|  |  |  | c1ccc(CNCC2CCc3ccccc3O2)cc1 (centres unmarked) [reference compound] | 6.20 |
